In brackets after ≈: the same amount, converted by molar mass.
How the values were obtained:
[1] = system: HepG2; assay: MTT cytotoxicity assay, HepG2; assay type: cell-based, human; settings: Homo sapiens
Method: (§1) The cytotoxic assay of 11 naturally occurring and 19 synthesized phenanthrenes was carried out on a diverse set of human liver (HepG2 and Hep3B), oral (Ca9-22), lung (A549) and breast (MEA-MB-231 and MCF7) cancer cell lines, and a human fetal lung fibroblast (MRC-5) cell line (Tables 1 and 2).
(§2) Compounds were tested against human liver (HepG2 and Hep3B), oral (Ca9-22), lung (A549), breast (MEA-MB-231 and MCF7) cancer cell lines, and the human fetal lung fibroblast (MRC-5) cell line using an established colorimetric MTT assay protocol. The absorbance was measured at 550 nm using a microplate reader. The IC50 is the concentration of agent that reduced cell growth by 50% under the experimental conditions.

[2] = system: Hep3B; assay: MTT cytotoxicity assay, Hep3B; assay type: cell-based, human; settings: Homo sapiens, Hep3B
Method: as §1, §2

[3] = system: Ca9-22; assay: MTT cytotoxicity assay, Ca9-22; assay type: cell-based, human; settings: Homo sapiens
Method: as §1, §2

[4] = system: A549; assay: MTT cytotoxicity assay, A549; assay type: cell-based, human; settings: Homo sapiens
Method: as §1, §2

[5] = system: MCF-7; assay: MTT cytotoxicity assay, MCF-7; assay type: cell-based, human; settings: Homo sapiens; for IC50: MTT; for MCF-7 activity class (from IC50): MCF7, Table S3, read-out: Scale Exptl. (MCF-7 activity class)
Method: as §1, §2
The pharmacophore modeling with Catalyst HypoGen was performed via Discovery Studio 2.1 (Accelrys, San Diego, CA, USA). Twenty-nine phenanthrene derivatives were collected from the natural plant, C. arisanensis, and from chemical synthesis (Figure 2). Cytotoxicity against MCF-7 cells was determined by the MTT assay and the concentration (µg/mL) of test compound which inhibited 50% of the cancer cells (IC50) was used in the generation of the pharmacophore model. An IC50 value of >20 µg/mL was defined as 20 µg/mL. All experimental IC50 values spanned about 2–3 orders of magnitude from 0.09 to 20 µg/mL. The 2D/3D structures of compounds were generated using ChemBioOffice 2008 (Cambridge Scientic Computing, Cambridge, Massachusetts, USA) and then optimized in a Dreiding force field. The conformational ensemble of each compound was generated using the best conformational analysis method based on a CHARMM force field with a 20 kcal/mol energy threshold above the global minimum. A maximum limit of 255 conformations was used to cover maximum conformational space. The best 3D arrangements of chemical functionalities should explain the activity variations among the 29 compounds. Thirty runs with different parameters were performed for the best pharmacophore hypothesis. Four chemical features, including hydrogen-bond acceptor (HBA), hydrogen-bond donor (HBD), hydrophobic (HYD), and aromatic ring (AR) features, were also tested during the building of pharmacophore hypotheses (Table S1; Text S1). The best hypotheses were selected via a correlation and a cost analysis in Catalyst HypoGen.

[6] = system: MDA-MB-231; assay: MTT cytotoxicity assay, MDA-MB-231; assay type: cell-based, human; settings: Homo sapiens
Method: as §1, §2

[7] = system: MRC-5; assay: MTT cytotoxicity assay, MRC-5 fetal lung fibroblast; assay type: cell-based, human; settings: Homo sapiens, normal fetal lung fibroblast
Method: as §1, §2

[8] = system: human cancer cell lines; assay: MTT cytotoxicity assay, ranges over the cancer cell line panel; assay type: cell-based
Method: as §1, §2

[9] = HepG2, Table 2, synthesized phenanthrenes
[10] = Table 2, synthesized phenanthrenes
[11] = Ca9-22, Table 2, synthesized phenanthrenes
[12] = A549, Table 2, synthesized phenanthrenes
[13] = MCF7, Table 2, synthesized phenanthrenes
[14] = MDA-MB-231, Table 2, synthesized phenanthrenes
[15] = MRC5, Table 2, synthesized phenanthrenes

`COc1cc2ccc3c(OC)ccc(OC)c3c2c(OC)c1OC` [Compound 3a, 1,4,5,6,7-Pentamethoxy-phenanthrene] was tested, and the IC50 [1, 9] was > 20 µg/mL, the IC50 [2, 10] was 15.55 ± 0.08 µg/mL (≈ 47.4 µM) and the IC50 [3, 11] was > 20 µg/mL. For the same molecule, the IC50 [4, 12] was > 20 µg/mL, the IC50 [5, 13] was > 20 µg/mL and the MCF-7 activity class (from IC50) [5] was > 20 µg/mL. The IC50 [6, 14] was > 20 µg/mL and the IC50 [7, 15] was > 20 µg/mL.
`COc1cc(OC)c2c(ccc3c(OC)ccc(OC)c32)c1` [Compound 3b, 1,4,5,7-Tetramethoxy-phenanthrene] was tested, and the IC50 [1, 9] was > 20 µg/mL, the IC50 [2, 10] was > 20 µg/mL and the IC50 [3, 11] was 18.44 ± 0.11 µg/mL (≈ 61.8 µM). The IC50 [4, 12] was > 20 µg/mL, the IC50 [5, 13] was > 20 µg/mL and the MCF-7 activity class (from IC50) [5] was > 20 µg/mL. For the same molecule, the IC50 [6, 14] was > 20 µg/mL and the IC50 [7, 15] was > 20 µg/mL.
In the case of `COc1cc2ccc3c(c2c(OC)c1OC)C(=O)C=CC3=O` [Compound 4a, 5,6,7-Trimethoxy-1,4-phenanthrenequinone], the IC50 [1, 9] is reported as 15.68 ± 0.01 µg/mL (≈ 52.6 µM), the IC50 [2, 10] is reported as 7.33 ± 0.03 µg/mL (≈ 24.6 µM) and the IC50 [3, 11] is reported as 2.17 ± 0.01 µg/mL (≈ 7.27 µM). For the same molecule, the IC50 [4, 12] was 15.94 ± 0.01 µg/mL (≈ 53.4 µM), the IC50 [5, 13] was 13.2 ± 0.38 µg/mL (≈ 44.2 µM) and the MCF-7 activity class (from IC50) [5] was 1 to 20 µg/mL. The IC50 [6, 14] was 4.6 ± 0.06 µg/mL (≈ 15.4 µM) and the IC50 [7, 15] was 11.9 ± 0.12 µg/mL (≈ 40 µM).
`COC1=CC(=O)c2ccc3cc(OC)cc(OC)c3c2C1=O` [Compound 5b, 3,5,7-Trimethoxy-1,4-phenanthrenequinone] gave an IC50 [1, 9] of 13 ± 0.21 µg/mL (≈ 43.5 µM), an IC50 [2, 10] of 15.9 ± 0.21 µg/mL (≈ 53.5 µM) and an IC50 [3, 11] of 15.25 ± 0.05 µg/mL (≈ 51.1 µM). The IC50 [4, 12] was 15.7 ± 0.17 µg/mL (≈ 52.7 µM), the IC50 [5, 13] was 14.4 ± 0.28 µg/mL (≈ 48.3 µM) and the MCF-7 activity class (from IC50) [5] was 1 to 20 µg/mL. For the same molecule, the IC50 [6, 14] was 19 ± 0.55 µg/mL (≈ 63.6 µM), the IC50 [7, 15] was > 20 µg/mL and the “activity against all human cancer cell lines” value ([8]; all human cancer cell lines) was “marginal activities”.
`COC1=CC(=O)c2ccc3c(-c4c(OC)c(OC)c(OC)c5c6c(ccc45)C(=O)C=C(OC)C6=O)c(OC)c(OC)c(OC)c3c2C1=O` [Compound 5d, 3,5,6,7,3′,5′,6,7′-Octamethoxy-[8,8′]bi-1,4,1′,4′-phenanthrenequinone] showed an IC50 [1, 9] of 1.49 ± 0.01 µg/mL (≈ 2.28 µM), an IC50 [2, 10] of 6.66 ± 0.13 µg/mL (≈ 10.2 µM) and an IC50 [3, 11] of 4.36 ± 0.03 µg/mL (≈ 6.66 µM). It also gave an IC50 [4, 12] of 9.3 ± 0.48 µg/mL (≈ 14.2 µM), an IC50 [5, 13] of 13.78 ± 0.06 µg/mL (≈ 21.1 µM) and an MCF-7 activity class (from IC50) [5] of 1 to 20 µg/mL. For the same molecule, the IC50 [6, 14] was 14.8 ± 0.25 µg/mL (≈ 22.5 µM) and the IC50 [7, 15] was > 20 µg/mL.
Work on `COC1=CC(=O)c2ccc3c(-c4c(OC)c(OC)c(OC)c5c6c(ccc45)C(=O)CC(OC)(OC)C6=O)c(OC)c(OC)c(OC)c3c2C1=O` [Compound 5e, 3,5,6,7,3′,3′,5′,6,7′-nonamethoxy-2′3′-dihydro-[8,8′]bi-1,4,1′,4′-phenanthrenequinone] yielded an IC50 [1, 9] of 1.24 ± 0.08 µg/mL (≈ 1.81 µM), an IC50 [2, 10] of 7.38 ± 0.02 µg/mL (≈ 10.7 µM) and an IC50 [3, 11] of 6.21 ± 0.12 µg/mL (≈ 9.04 µM). The IC50 [4, 12] was 7.49 ± 0.07 µg/mL (≈ 10.9 µM), the IC50 [5, 13] was 9.4 µg/mL (≈ 13.7 µM) and the MCF-7 activity class (from IC50) [5] was 1 to 20 µg/mL. The IC50 [6, 14] was 6.74 ± 0.05 µg/mL (≈ 9.82 µM) and the IC50 [7, 15] was 8.11 ± 0.25 µg/mL (≈ 11.8 µM).
`COC1=CC(=O)c2ccc3cc(OC)cc(O)c3c2C1=O` [Compound 6b, 5-Hydroxy-3,7-dimethoxy-1,4-phenanthrenequinone] gave an IC50 [1, 9] of 0.23 ± 0.01 µg/mL (≈ 0.809 µM), an IC50 [2, 10] of 0.34 µg/mL (≈ 1.2 µM) and an IC50 [3, 11] of 0.68 µg/mL (≈ 2.39 µM). It also gave an IC50 [4, 12] of 0.99 ± 0.02 µg/mL (≈ 3.48 µM), an IC50 [5, 13] of 0.26 µg/mL (≈ 0.915 µM) and an IC50 [6, 14] of 1.06 ± 0.03 µg/mL (≈ 3.73 µM). The IC50 [7, 15] was 2.14 ± 0.08 µg/mL (≈ 7.53 µM) and the IC50 ([8]; Homo sapiens, range over the cancer cell lines tested, read-out: IC50 against various / all human cancer cell lines) was 0.08 to 1.66 µg/mL (≈ 0.281 to 5.84 µM).
Work on `COc1cc2ccc3c(OC)ccc(OC)c3c2c(O)c1O` [Compound 8a, 5,6-Dihydroxy-1,4,7-trimethoxy-phenanthrene] yielded an IC50 [1, 9] of 19.4 ± 0.56 µg/mL (≈ 64.5 µM), an IC50 [2, 10] of 5.77 ± 0.63 µg/mL (≈ 19.2 µM) and an IC50 [3, 11] of 3.91 ± 0.07 µg/mL (≈ 13 µM). The IC50 [4, 12] was > 20 µg/mL, the IC50 [5, 13] was 17 ± 0.42 µg/mL (≈ 56.6 µM) and the MCF-7 activity class (from IC50) [5] was 1 to 20 µg/mL. The IC50 [6, 14] was 15.6 ± 1.52 µg/mL (≈ 52 µM) and the IC50 [7, 15] was > 20 µg/mL.
With `COc1cc(OC)c2c(ccc3c(OC)ccc(O)c32)c1` [Compound 8b, 4-Hydroxy-1,5,7-trimethoxy-phenanthrene] the IC50 [1, 9] was 10.1 ± 0.66 µg/mL (≈ 35.5 µM), the IC50 [2, 10] was 6.93 ± 0.19 µg/mL (≈ 24.4 µM) and the IC50 [3, 11] was 12.1 ± 0.37 µg/mL (≈ 42.5 µM). The IC50 [4, 12] was 19.6 ± 0.22 µg/mL (≈ 68.9 µM), the IC50 [5, 13] was 19.31 ± 0.08 µg/mL (≈ 67.9 µM) and the MCF-7 activity class (from IC50) [5] was 1 to 20 µg/mL. The IC50 [6, 14] was > 20 µg/mL and the IC50 [7, 15] was > 20 µg/mL.
`COc1cc2ccc3c(OC)ccc(OC)c3c2c(O)c1OC` [Compound 9a, 5-hydroxy-1,4,6,7-tetramethoxy-phenanthrene] was tested, and the IC50 [1, 9] was > 20 µg/mL, the IC50 [2, 10] was > 20 µg/mL and the IC50 [3, 11] was > 20 µg/mL. The IC50 [4, 12] was > 20 µg/mL, the IC50 [5, 13] was > 20 µg/mL and the MCF-7 activity class (from IC50) [5] was > 20 µg/mL. The IC50 [6, 14] was > 20 µg/mL and the IC50 [7, 15] was > 20 µg/mL.
In the case of `COc1cccc2c1C(=O)c1c(O)c3c(c(O)c1C2=O)C[C@@](O)(C(=O)CO)C[C@@H]3O[C@H]1C[C@H](N)[C@H](O)[C@H](C)O1` [Doxo, Doxorubicin, reference compound], the IC50 ([1]; HepG2, Table 1, natural phenanthrenes) is reported as 0.22 ± 0.04 µg/mL (≈ 0.405 µM), the IC50 ([2]; Table 1, natural phenanthrenes) is reported as 0.49 µg/mL (≈ 0.902 µM) and the IC50 [2, 10] is reported as 0.42 ± 0.01 µg/mL (≈ 0.773 µM). It also gave an IC50 ([3]; Ca9-22, Table 1, natural phenanthrenes) of 0.16 ± 0.02 µg/mL (≈ 0.294 µM), an IC50 [3, 11] of 0.14 ± 0.04 µg/mL (≈ 0.258 µM) and an IC50 ([4]; A549, Table 1, natural phenanthrenes) of 0.81 ± 0.04 µg/mL (≈ 1.49 µM). For the same molecule, the IC50 [4, 12] was 0.63 ± 0.15 µg/mL (≈ 1.16 µM), the IC50 ([5]; MCF7, Table 1, natural phenanthrenes) was 0.67 ± 0.03 µg/mL (≈ 1.23 µM) and the IC50 [5, 13] was 0.35 ± 0.09 µg/mL (≈ 0.644 µM). For the same molecule, the IC50 ([6]; MDA-MB-231, Table 1, natural phenanthrenes) was 0.74 ± 0.01 µg/mL (≈ 1.36 µM), the IC50 [6, 14] was 1.12 ± 0.05 µg/mL (≈ 2.06 µM) and the IC50 ([7]; MRC5, Table 1, natural phenanthrenes) was 1.94 ± 0.02 µg/mL (≈ 3.57 µM).

— paper PMC3362575, “Synthesis and Biological Evaluation of Phenanthrenes as Cytotoxic Agents with Pharmacophore Modeling and ChemGPS-NP Prediction as Topo II Inhibitors” (PLoS ONE, 2012)
